Where a SMILES comes first, the peptide text is derived from it.
Legend:
12-month old rats = test: Morris water maze, spatial reference memory; type: in vivo, rat; details: 0.96 or 4.8 mg/day s.c. mini-osmotic pump, vs saline
Procedure: We used male Wistar rats 12, 8 or 4 months of age. The Morris water maze test was conducted using a black plastic pool filled to a depth of 25 cm with water colored black with a non-toxic dye. […] The platform remained in that position though the training. The experiment used extra-maze cues (i.e. objects in the room surrounding the pool) that the rats could use to navigate to the platform. Distinctive posters or paintings were hung on the walls. Furniture in the room was not moved during the testing period. The placement of the pool allowed the experimenter an easy access to it from all sides. The pool was emptied and refilled daily during testing, with water at 25° C.+/-2° C. Rats in each group were trained to swim to the submerged platform. The rats received six 60-second trials per day for four consecutive days. A trial began by placing the rat into the water facing the wall of the pool, at one of four start locations (north, south, east, west). The sequence of start locations was chosen pseudorandomly, so that the start location of any given trial was different from that of the previous trial, and no start location was used more than twice during daily training. […] The swim latency for each rat was recorded for each trial for each day of the acquisition and retention phases and changes between phases were examined using Analysis of Variance.

[1] = Pharmacokinetics after intravenous bolus injection; type: in vivo, rat
Procedure: Adult male Wistar rats weighing between 180 and 240 g were used to determine the pharmacokinetics of GPE and G2MePE. To facilitate intravenous bolus injections and blood sampling, all rats were surgically implanted with an indwelling jugular venous cannula under halothane anesthesia three days before the experiment. Groups of six rats were given a single intravenous bolus injection of either 30 mg/kg GPE or 10 mg/kg G2MePE dissolved in 0.1M succinate buffer (pH 6.5). Blood samples (about 220 μl each) were collected into heparinized tubes containing Sigma protease inhibitor cocktail for mammalian tissues at 10 and 0 min before injection of either GPE or G2MePE, and 1, 2, 4, 8, 16, 32, 64 and 128 min after injection of either GPE or G2MePE. The samples were centrifuged at 3000 g for 15 min at 4° C. and the plasma removed and stored at −80° C. until extraction and assay by either radioimmunoassay (“RIA”) or reverse phase HPLC. The RIA and HPLC methods used were conventional.
The k and half-life (t1/2) were calculated from the slope of the linear regression line in the elimination phase of the semi-logarithmic plot of plasma concentration versus time as: Log C=−kt/2.3+log C0. Results were expressed as mean±standard error.

[2] = system: neurons in the CA3 region of the hippocampus; test: Neuron soma size in hippocampus CA3 (Example 10); type: in vivo, mouse
Procedure: We also measure the effect of G-2-MePE treatment on neuron soma size in the hippocampus. Mice are treated with G-2-MePE as described above for locomotor activity.

ERK1/2 = test: Western blot of ERK and phosphorylated ERK; type: in vivo, mouse; details: 100 mg/kg 4 weeks, 12 days after last injection
Procedure: Phosphorylated Extracellular Signal-Regulated Protein Kinase (ERK) and Protein Kinase B (Akt) expression was measured by Western blot analysis in lymphocytes from fmr1 KO and wild-type animals administered ether vehicle or G-2MePE (100 mg/kg, i.p.; 28 days) treated in the behavior experiments as previously described (Lopez Verrilli et al. 2009). ERK is a classical MAPK signal transduction protein, responsible for growth factor transduction, proliferation, cytokine response to stress and apoptosis. […]
To conduct the western blots, antibodies were used against Akt ( 1/1000) (Cell Signaling), ERK1/2 ( 1/2000) (Cell Signaling), antiphospho-Akt ( 1/1000) and antiphospho-ERK ( 1/2000) (Cell Signaling). Total Akt and ERK 1/2 protein content (phosphorylated) were evaluated by blotting membranes with antiphospho-Akt ( 1/1000) and antiphospho-ERK antibodies ( 1/2000) (Cell Signaling). Akt or ERK phosphorylation was normalized to protein content in the same sample and expressed as % of change with respect to basal conditions, considering basal levels as 100%. Protein loading was evaluated by stripping and re-blotting membranes with b-actin antibody ( 1/1000) (Sigma Chemical Co.). […]

C[C@@]1(C(=O)N[C@@H](CCC(=O)O)C(=O)O)CCCN1C(=O)CN [Example G-2-MePE, Glycyl-L-2-methylprolyl-L-glutamic acid] (HELM PEPTIDE1{G.[C[C@@]1(C(=O)[*:2])CCCN1[*:1]].E}$$$$V2.0)
memory: time needed to reach the platform, retention phase (12-month old rats): improved memory | maximal plasma concentration relative to GPE ([1]; G-2-MePE 10 mg/kg vs GPE 30 mg/kg i.v.): about 4.8 times | t1/2 relative to GPE ([1]; i.v.): over 4 times | half-life ([1]; male, Wistar, rat, plasma, iv, single i.v. bolus, GPE 30 mg/kg, G-2-MePE 10 mg/kg): 20.7 ± 0.35 min | clearance ([1]; male, Wistar, rat, plasma, iv, single i.v. bolus, GPE 30 mg/kg, G-2-MePE 10 mg/kg, read-out: estimated clearance from plasma (converted)): 0.502 mL/min | first order rate constant ([1]; single i.v. bolus, GPE 30 mg/kg, G-2-MePE 10 mg/kg): 0.033 ± 0.001 min⁻¹ | peak plasma concentration ([1]; single i.v. bolus, GPE 30 mg/kg, G-2-MePE 10 mg/kg, mean±standard error): 191 ± 16.1 µg/mL | average soma size ([2]; KO animals): increases average soma size | soma size ([2]; wild type animals): little or no effect | phosphorylated ERK1/2 (pERK) (ERK1/2; fmr1 KO vs vehicle, p<0.05): significantly reduced | total ERK expression levels (ERK1/2; fmr1 KO): increase in ERK expression levels

— US20150224164A1, “TREATMENT OF AUTISM SPECTRUM DISORDERS USING GLYCYL-L-2-METHYLPROLYL-L-GLUMATIC ACID” (Neuren Pharmaceuticals Limited, priority 2013, published 2015)
